Values quoted from earlier work, collected in patent US7235142B2, “Non-toxic corrosion-protection rinses and seals based on cobalt” (University of Dayton, priority 2002, dated 2007).

Details: pH 7

| SMILES | Solubility in Water |
| --- | --- |
| [O-][Cl+3]([O-])([O-])O [Sodium perchlorate] | 15000 mM |
| [O-][Cl+3]([O-])([O-])[O-].[O-][Cl+3]([O-])([O-])[O-].[Sr+2] [Strontium perchlorate] | 11000 mM |
| N.N.N.N.N.N.[Cl-].[Cl-].[Cl-].[Co+3] [Hexaammine cobalt (III) chloride] | 220 mM |
| N.N.N.N.N.[Cl][Co]([Cl])[Cl] [Pentaammine cobalt (III) chloride] | 930 mM |
